Values quoted from earlier work in article PMC10882020 (Heliyon, 2024).
pIC50: −log10 of the molar value.

Experiments:
ACE = conditions: read-out: ACE inhibitory activity IC50; ref 11 (Zheng et al.)
[1] = orally administered at a dose of 100–150 mg/kg; ref 11 (Zheng et al.)

- pIC50 (ACE): 4.42
Sequence: RGQVIYVL
- antihypertensive effects [1]: significant antihypertensive effects
